We go through five molecules from patent US10954210B2, “Crystal form of tipifarnib and preparation method and pharmaceutical composition thereof” (Hangzhou SoliPharma Co., Ltd., priority 2016, dated 2021).

Entries after “also recorded” stand apart in the source; their conditions may differ.

Holding throughout (assay type): physicochemical
Series [1] in a line: Phase and chemical stability experiments (10 days storage, XRD and purity). The note with it: for Form (10 days test results): by XRD; for crystalline form after storage / purity change after storage: 10 days at 60° C. dry condition and 40° C./75% RH condition. Here is the method: (§1) Instruments and characterization methods: • X-ray powder diffraction (XRPD): performed on Bruder D8 Advance diffractometer. The samples were tested at room temperature under the following conditions: scan range 3-40° 2θ, step size 0.02° 2θ, and speed 0.2 s/step.

Series [2] is described as follows: Slurry experiment in water (stirred 3 days at room temperature, XRD). The note with it: stirred in water at room temperature for 3 days, by XRD. The protocol:
as §1

A short description of series [3]: Dynamic vapor sorption / isothermal sorption. The protocol:
Dynamic vapor sorption data and isothermal sorption data were collected on TA Instruments Q5000 TGA. Method: place 1 mg to 10 mg sample into a platinum pan; the weight change of the sample during the change in relative humidity from 0% to 80% to 0% was measured.

Take `Cn1cncc1[C@@](N)(c1ccc(Cl)cc1)c1ccc2c(c1)c(-c1cccc(Cl)c1)cc(=O)n2C` [Form I, (R)-6-(amino(4-chlorophenyl)(1-methyl-1H-imidazol-5-yl)methyl)-4-(3-chlorophenyl)-1-methyl-2(1H)-quinolinone]: in series [1] (40° C./75% RH), the “Purity (%) (10 days test results)” value was 99.61% and the “Form (10 days test results)” value was “Tipifarnib Form I”. For the same molecule, in series [1] (60° C./drying), the “Purity (%) (10 days test results)” value is 99.72% and the “Form (10 days test results)” value is on record as “Tipifarnib Form I”. In series [1], the “crystalline form after storage” value is on record as “remained its original form; also recorded: remained their original forms” and the “purity change after storage” value is “essentially did not change; also recorded: essentially did not decrease”. Moreover, the “Test results: crystalline form after stirring in water” value (shortened to “Test results: crystalline form”) in series [2] is on record as “remain unchanged”. In series [2] (listed as Tipifamib Form I), the “Test results: crystalline form” value was “Tipifamib Form I”. The “weight change (isothermal sorption plot)” value in series [3] (between 20 to 80% RH) was “less than 0.2%”. For the same molecule, in series [3] (isothermal sorption plot, 20 to 80% RH), the hygroscopicity entry is on record as “not hygroscopic”.
For `Cn1cncc1[C@@](N)(c1ccc(Cl)cc1)c1ccc2c(c1)c(-c1cccc(Cl)c1)cc(=O)n2C` [Form A, (R)-6-(amino(4-chlorophenyl)(1-methyl-1H-imidazol-5-yl)methyl)-4-(3-chlorophenyl)-1-methyl-2(1H)-quinolinone, reference compound], the “Test results: crystalline form” value in series [2] is listed as “transformed to tipifanib Form I”; in series [2] (listed as Tipifarnib Form A), “Tipifarnib Form I”.
Turning to `Cn1cncc1[C@@](N)(c1ccc(Cl)cc1)c1ccc2c(c1)c(-c1cccc(Cl)c1)cc(=O)n2C` [Form II, (R)-6-(amino(4-chlorophenyl)(1-methyl-1H-imidazol-5-yl)methyl)-4-(3-chlorophenyl)-1-methyl-2(1H)-quinolinone], in series [1] (40° C./75% RH), the “Purity (%) (10 days test results)” value stood at 99.86% and the “Form (10 days test results)” value is listed as “Tipifarnib Form II”. In addition, in series [1] (60° C./drying), the “Purity (%) (10 days test results)” value is 99.84% and the “Form (10 days test results)” value is reported as “Tipifarnib Form II”. Further, in series [1], the “crystalline form after storage” value is given as “remained their original forms; also recorded: remained its original form” and the “purity change after storage” value is on record as “essentially did not decrease; also recorded: essentially did not change”. In addition, the “Test results: crystalline form” value in series [2] is recorded as “remained unchanged”. Moreover, the “Test results: crystalline form” value in series [2] (listed as Tipifarnib Form II) is “Tipifarnib Form II”.
Consider `Cn1cncc1[C@@](N)(c1ccc(Cl)cc1)c1ccc2c(c1)c(-c1cccc(Cl)c1)cc(=O)n2C` [Form IV, (R)-6-(amino(4-chlorophenyl)(1-methyl-1H-imidazol-5-yl)methyl)-4-(3-chlorophenyl)-1-methyl-2(1H)-quinolinone], for which the “Purity (%) (10 days test results)” value in series [1] (40° C./75% RH) amounted to 99.73%; in series [1] (60° C./drying), 99.85%. For the same molecule, the “Form (10 days test results)” value in series [1] (40° C./75% RH) and in series [1] (60° C./drying) was “Tipifarnib Form IV” throughout. Moreover, in series [1], the “crystalline form after storage” value was “remained their original forms; also recorded: remained its original form”. Also, the “purity change after storage” value in series [1] is “essentially did not decrease; also recorded: essentially did not change”. The “Test results: crystalline form” value is on record as “remained unchanged” in series [2] and “Tipifarnib Form IV” in series [2] (listed as Tipifarnib Form IV).
In the case of `Cn1cncc1[C@@](N)(c1ccc(Cl)cc1)c1ccc2c(c1)c(-c1cccc(Cl)c1)cc(=O)n2C` [Form III, (R)-6-(amino(4-chlorophenyl)(1-methyl-1H-imidazol-5-yl)methyl)-4-(3-chlorophenyl)-1-methyl-2(1H)-quinolinone], in series [1] (40° C./75% RH), the “Purity (%) (10 days test results)” value is 99.80% and the “Form (10 days test results)” value is listed as “Tipifarnib Form III”. Besides, in series [1] (60° C./drying), the “Purity (%) (10 days test results)” value was determined as 99.80% and the “Form (10 days test results)” value is recorded as “Tipifarnib Form III”. In series [1], the “crystalline form after storage” value is listed as “remained their original forms; also recorded: remained its original form” and the “purity change after storage” value was “essentially did not decrease; also recorded: essentially did not change”. Further, the “Test results: crystalline form” value in series [2] is listed as “remained unchanged”. Also, the “Test results: crystalline form” value in series [2] (listed as Tipifarnib Form III) was “Tipifarnib Form III”.
